Experimental data published in patent US20260193264A1, “BENZOYPARAZINE PYRAZINES AND THEIR USES” (FOGHORN THERAPEUTICS INC., priority 2022, published 2026).

Assays:
[1] = biological target: T1, HiBit-BRG1 fusion protein in stable HeLa cell line expressing HiBit-BRG1 and LgBit (Homo sapiens, UniProt P51532); experiment: HiBiT-BRG1 cell-based degradation assay (Nano-Glo HiBiT, 24 h); conditions: HeLa HiBit-BRG1/LgBit cells; for Dmax: top dose 30 μM, read-out: BRG1 HiBit Degradation Maximum (%); for DC50: read-out: BRMG1 HiBit Degradation IC50
T1 construct: expressed in transfected cells
T1 sequence (P51532 whole entry, the tested form may be a part): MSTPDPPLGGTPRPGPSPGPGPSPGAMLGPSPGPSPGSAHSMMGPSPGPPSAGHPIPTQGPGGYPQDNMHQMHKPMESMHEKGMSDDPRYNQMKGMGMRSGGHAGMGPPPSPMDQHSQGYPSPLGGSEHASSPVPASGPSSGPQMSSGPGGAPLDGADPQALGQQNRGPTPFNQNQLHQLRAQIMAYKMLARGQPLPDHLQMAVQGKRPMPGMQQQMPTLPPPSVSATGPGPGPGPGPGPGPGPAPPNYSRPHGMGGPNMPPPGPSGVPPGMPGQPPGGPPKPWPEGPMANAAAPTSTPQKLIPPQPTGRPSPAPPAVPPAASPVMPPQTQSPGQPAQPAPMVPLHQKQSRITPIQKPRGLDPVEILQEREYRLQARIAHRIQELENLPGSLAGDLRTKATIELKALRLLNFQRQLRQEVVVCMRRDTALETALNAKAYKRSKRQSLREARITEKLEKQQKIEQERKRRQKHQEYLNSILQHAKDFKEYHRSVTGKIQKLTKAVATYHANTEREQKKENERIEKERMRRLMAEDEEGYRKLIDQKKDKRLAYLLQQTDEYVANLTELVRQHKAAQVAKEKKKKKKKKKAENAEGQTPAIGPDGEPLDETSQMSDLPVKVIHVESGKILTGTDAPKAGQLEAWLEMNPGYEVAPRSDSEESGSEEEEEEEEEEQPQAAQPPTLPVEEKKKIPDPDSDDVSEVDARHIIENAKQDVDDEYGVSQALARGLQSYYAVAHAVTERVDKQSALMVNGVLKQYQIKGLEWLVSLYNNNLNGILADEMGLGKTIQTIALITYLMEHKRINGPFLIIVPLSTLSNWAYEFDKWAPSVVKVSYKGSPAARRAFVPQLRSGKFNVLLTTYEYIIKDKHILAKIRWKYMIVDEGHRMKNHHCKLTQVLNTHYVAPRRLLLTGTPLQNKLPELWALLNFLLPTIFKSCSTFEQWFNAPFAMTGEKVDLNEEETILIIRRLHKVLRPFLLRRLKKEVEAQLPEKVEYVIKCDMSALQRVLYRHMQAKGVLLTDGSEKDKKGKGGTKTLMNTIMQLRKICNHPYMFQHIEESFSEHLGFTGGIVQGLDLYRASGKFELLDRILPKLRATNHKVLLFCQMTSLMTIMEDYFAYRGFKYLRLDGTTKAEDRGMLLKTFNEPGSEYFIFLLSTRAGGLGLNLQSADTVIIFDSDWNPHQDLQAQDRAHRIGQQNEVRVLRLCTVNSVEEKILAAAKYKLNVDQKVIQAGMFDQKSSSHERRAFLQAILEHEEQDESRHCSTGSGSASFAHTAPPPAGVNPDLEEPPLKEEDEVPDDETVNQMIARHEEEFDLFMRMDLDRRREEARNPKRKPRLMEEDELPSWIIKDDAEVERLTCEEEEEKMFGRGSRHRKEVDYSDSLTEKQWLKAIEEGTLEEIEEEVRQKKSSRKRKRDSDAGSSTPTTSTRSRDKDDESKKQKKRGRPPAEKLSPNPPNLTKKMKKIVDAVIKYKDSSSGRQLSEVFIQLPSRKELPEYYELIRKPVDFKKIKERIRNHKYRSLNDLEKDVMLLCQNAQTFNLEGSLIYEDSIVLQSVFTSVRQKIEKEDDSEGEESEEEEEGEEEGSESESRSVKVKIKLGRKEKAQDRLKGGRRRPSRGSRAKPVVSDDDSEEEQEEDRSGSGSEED
In short: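 Degradation calculated from NanoBiT luminescence relative to DMSO-treated cells (high) and cells given 2 μM known BRM/BRG1 degrader (low). HeLa cells stably expressing HiBiT-BRG1 plus LgBiT were exposed to compound for 24 h before lytic HiBiT detection.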

[2] = biological target: T2, HiBiT-BRM fusion protein in stable HeLa cell line (Homo sapiens, UniProt P51531); experiment: HiBiT-BRM cell-based degradation assay (Nano-Glo HiBiT Lytic Detection, 24 h); design: DC50: scale not given here; conditions: HeLa HiBiT-BRM cells; for DC50: read-out: BRM HiBit Degradation IC50; for BRM HiBit Degradation Maximum (%): top dose 30 μM
T2 construct: expressed in transfected cells
T2 sequence (P51531 whole entry, the tested form may be a part): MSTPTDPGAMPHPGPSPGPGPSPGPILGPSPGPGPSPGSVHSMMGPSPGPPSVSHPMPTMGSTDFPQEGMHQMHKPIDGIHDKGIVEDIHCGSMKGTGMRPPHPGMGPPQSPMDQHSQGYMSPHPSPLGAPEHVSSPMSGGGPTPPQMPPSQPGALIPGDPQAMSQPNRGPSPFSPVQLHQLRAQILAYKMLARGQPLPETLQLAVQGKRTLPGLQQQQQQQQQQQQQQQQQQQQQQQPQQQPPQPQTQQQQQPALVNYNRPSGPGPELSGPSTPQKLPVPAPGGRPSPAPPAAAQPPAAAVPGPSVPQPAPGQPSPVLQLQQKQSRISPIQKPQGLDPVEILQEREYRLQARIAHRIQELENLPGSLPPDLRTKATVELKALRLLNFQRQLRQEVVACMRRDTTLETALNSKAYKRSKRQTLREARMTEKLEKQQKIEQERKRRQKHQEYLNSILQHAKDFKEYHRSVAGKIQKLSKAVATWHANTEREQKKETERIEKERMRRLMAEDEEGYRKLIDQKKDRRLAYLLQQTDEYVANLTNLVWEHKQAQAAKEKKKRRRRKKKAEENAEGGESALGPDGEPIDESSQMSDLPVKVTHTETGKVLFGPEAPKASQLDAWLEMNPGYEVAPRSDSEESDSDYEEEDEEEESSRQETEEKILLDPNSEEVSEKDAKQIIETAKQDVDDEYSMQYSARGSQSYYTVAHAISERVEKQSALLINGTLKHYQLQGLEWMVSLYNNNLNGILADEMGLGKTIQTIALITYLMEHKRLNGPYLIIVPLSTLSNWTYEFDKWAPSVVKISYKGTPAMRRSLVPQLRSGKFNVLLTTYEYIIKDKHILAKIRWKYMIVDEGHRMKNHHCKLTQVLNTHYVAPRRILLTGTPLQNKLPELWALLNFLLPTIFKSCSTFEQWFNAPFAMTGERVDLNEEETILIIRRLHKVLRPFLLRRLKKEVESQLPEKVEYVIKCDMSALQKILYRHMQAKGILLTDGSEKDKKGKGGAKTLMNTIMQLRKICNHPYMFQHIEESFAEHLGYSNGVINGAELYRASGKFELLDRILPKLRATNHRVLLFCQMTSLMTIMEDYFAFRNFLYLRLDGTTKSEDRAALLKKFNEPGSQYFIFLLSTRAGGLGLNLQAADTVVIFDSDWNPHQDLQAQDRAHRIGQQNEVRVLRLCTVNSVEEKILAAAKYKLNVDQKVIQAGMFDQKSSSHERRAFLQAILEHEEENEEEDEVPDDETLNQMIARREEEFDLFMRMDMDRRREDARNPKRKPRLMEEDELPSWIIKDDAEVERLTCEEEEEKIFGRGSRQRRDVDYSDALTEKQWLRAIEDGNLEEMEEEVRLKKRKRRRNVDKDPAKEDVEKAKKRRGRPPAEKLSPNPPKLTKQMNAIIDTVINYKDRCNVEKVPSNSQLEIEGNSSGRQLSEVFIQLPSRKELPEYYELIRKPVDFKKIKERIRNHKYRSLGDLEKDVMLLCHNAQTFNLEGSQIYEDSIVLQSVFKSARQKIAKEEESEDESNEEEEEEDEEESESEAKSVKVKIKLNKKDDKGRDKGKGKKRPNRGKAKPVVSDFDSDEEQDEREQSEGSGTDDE
In short: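 Percent degradation was scaled between DMSO-treated cells and cells given 2 μM of a known BRM/BRG1 degrader. Readout was NanoBiT luminescence after lytic detection. HeLa cells stably expressing HiBiT-BRM were dosed for 24 h, 10 points, 3-fold steps from 30 μM final, in duplicate.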

Row | Dmax [1] [%] | DC50 [2] [nM] | DC50 [1] [nM] | SMILES | BRM HiBit Degradation Maximum (%) [2]
1 | < 50 | < 10 | – | Cc1ncsc1-c1ccc([C@H](C)NC(=O)[C@@H]2C[C@@H](O)CN2C(=O)[C@H](C(C)C)n2cc(N3CC4(CN(c5ccc6nnc(-c7ccccc7O)cc6c5)CCO4)C3)nn2)cc1 [Compound 189, (2S,4R)-4-hydroxy-1-((S)-2-(4-(8-(3-(2-hydroxyphenyl)cinnolin-6-yl)-5-oxa-2,8-diazaspiro[3.5]nonan-2-yl)-1H-1,2,3-triazol-1-yl)-3-methylbutanoyl)-N-((S)-1-(4-(4-methylthiazol-5-yl)phenyl)ethyl)pyrrolidine-2-carboxamide] | A (“A” indicates maximum degradation ≥75%)
2 | < 50 | < 10 | – | Cc1ncsc1-c1ccc([C@H](C)NC(=O)[C@@H]2C[C@@H](O)CN2C(=O)[C@H](C(C)C)n2cc(-c3ccc4nnc(-c5ccccc5O)cc4c3Cl)nn2)cc1 [Compound 190, (2S,4R)-1-((S)-2-(4-(5-chloro-3-(2-hydroxyphenyl)cinnolin-6-yl)-1H-1,2,3-triazol-1-yl)-3-methylbutanoyl)-4-hydroxy-N-((S)-1-(4-(4-methylthiazol-5-yl)phenyl)ethyl)pyrrolidine-2-carboxamide] | A (“A” indicates maximum degradation ≥75%)
3 | < 50 | > 10 | – | Cc1ncsc1-c1ccc([C@H](C)NC(=O)[C@@H]2C[C@@H](O)CN2C(=O)C(c2cc(N3CC4(CN(c5cc(C(F)F)c6cc(-c7ccccc7O)nnc6c5)C4)C3)no2)C(C)C)cc1 (stereo partly drawn) [Compound 191, (2S,4R)-1-(2-(3-(6-(5-(difluoromethyl)-3-(2-hydroxyphenyl)cinnolin-7-yl)-2,6-diazaspiro[3.3]heptan-2-yl)isoxazol-5-yl)-3-methylbutanoyl)-4-hydroxy-N-((S)-1-(4-(4-methylthiazol-5-yl)phenyl)ethyl)pyrrolidine-2-carboxamide] | A (“A” indicates maximum degradation ≥75%)
4 | > 75 | < 10 | < 10 | Cc1ncsc1-c1ccc([C@H](C)NC(=O)[C@@H]2C[C@@H](O)CN2C(=O)[C@H](C(C)C)n2cc(N3CCC4(CCN(c5ccc6cc(-c7ccccc7O)nnc6c5)CC4)CC3)nn2)cc1 [Compound 192, (2S,4R)-4-hydroxy-1-((S)-2-(4-(9-(3-(2-hydroxyphenyl)cinnolin-7-yl)-3,9-diazaspiro [5.5]undecan-3-yl)-1H-1,2,3-triazol-1-yl)-3-methylbutanoyl)-N-((S)-1-(4-(4-methylthiazol-5-yl)phenyl)ethyl)pyrrolidine-2-carboxamide] | A (“A” indicates maximum degradation ≥75%)
5 | > 75 | < 10 | > 10 | Cc1ncsc1-c1ccc([C@H](C)NC(=O)[C@@H]2C[C@@H](O)CN2C(=O)[C@H](C2CCC2)n2cc(N3CC4(CC(c5ccc6cc(-c7ccccc7O)nnc6c5)C4)C3)nn2)cc1 [Compound 193, (2S,4R)-1-((S)-2-cyclobutyl-2-(4-(6-(3-(2-hydroxyphenyl)cinnolin-7-yl)-2-azaspiro[3.3]heptan-2-yl)-1H-1,2,3-triazol-1-yl)acetyl)-4-hydroxy-N-((S)-1-(4-(4-methylthiazol-5-yl)phenyl)ethyl)pyrrolidine-2-carboxamide] | A (“A” indicates maximum degradation ≥75%)
6 | > 50 | < 10 | – | Cc1ncsc1-c1ccc([C@H](C)NC(=O)[C@@H]2C[C@@H](O)CN2C(=O)[C@@H](c2cc(N3CC4(CN(c5ccc6cc(-c7ccccc7O)nnc6c5)C4)C3)sn2)C(C)C)cc1 [Compound 195, (2S,4R)-4-hydroxy-1-[(2R)-2-(5-{6-[3-(2-hydroxyphenyl)cinnolin-7-yl]-2,6-diazaspiro[3.3]heptan-2-yl}-1,2-thiazol-3-yl)-3-methylbutanoyl]-N-[(1S)-1-[4-(4-methyl-1,3-thiazol-5-yl)phenyl]ethyl]pyrrolidine-2-carboxamide] | A (“A” indicates maximum degradation ≥75%)
7 | < 50 | > 10 | – | COC[C@@H]1CN(c2cc([C@H](C(=O)N3C[C@H](O)C[C@H]3C(=O)N[C@@H](C)c3ccc(-c4scnc4C)cc3)C(C)C)on2)CCN1c1ccc2cc(-c3ccccc3O)nnc2c1 [Compound 196, (2S,4R)-4-hydroxy-1-((R)-2-(3-((S)-4-(3-(2-hydroxyphenyl)cinnolin-7-yl)-3-(methoxymethyl)piperazin-1-yl)isoxazol-5-yl)-3-methylbutanoyl)-N-((S)-1-(4-(4-methylthiazol-5-yl)phenyl)ethyl)pyrrolidine-2-carboxamide] | B (“B” indicates maximum degradation ≥50%)
8 | > 75 | < 10 | < 10 | Cc1ncsc1-c1ccc([C@H](C)NC(=O)[C@@H]2C[C@@H](O)CN2C(=O)C(C(C)C)n2cc(N3CCC4(CC3)CN(c3ccc5cc(-c6ccccc6O)nnc5c3)C4)nn2)cc1 (stereo partly drawn) [Compound 197, (2S,4R)-4-hydroxy-1-(2-(4-(2-(3-(2-hydroxyphenyl)cinnolin-7-yl)-2,7-diazaspiro[3.5]nonan-7-yl)-1H-1,2,3-triazol-1-yl)-3-methylbutanoyl)-N-((S)-1-(4-(4-methylthiazol-5-yl)phenyl)ethyl)pyrrolidine-2-carboxamide] | A (“A” indicates maximum degradation ≥75%)
9 | > 75 | < 10 | < 10 | Cc1ncsc1-c1ccc([C@H](C)NC(=O)[C@@H]2C[C@@H](O)CN2C(=O)[C@H](C(C)C)n2cc(N3CCN4CCN(c5ccc6cc(-c7ccccc7O)nnc6c5)C[C@H]4C3)nn2)cc1 [Compound 198] | A (“A” indicates maximum degradation ≥75%)
10 | > 75 | < 10 | > 10 | Cc1ncsc1-c1ccc([C@H](C)NC(=O)[C@@H]2C[C@@H](O)CN2C(=O)[C@@H](c2cc(C3CC4(C3)CN(c3ccc5cc(-c6ccccc6O)nnc5c3)C4)no2)C(C)C)cc1 [Compound 199, (2S,4R)-4-hydroxy-1-((R)-2-(3-(2-(3-(2-hydroxyphenyl)cinnolin-7-yl)-2-azaspiro[3.3]heptan-6-yl)isoxazol-5-yl)-3-methylbutanoyl)-N-((S)-1-(4-(4-methylthiazol-5-yl)phenyl)ethyl)pyrrolidine-2-carboxamide] | A (“A” indicates maximum degradation ≥75%)
11 | > 50 | < 10 | > 10 | CC(C)[C@@H](C(=O)N1C[C@H](O)C[C@H]1C(=O)N[C@@H](C)c1ccc(F)cc1)n1cc(N2CC3(CN(c4ccc5cc(-c6ccccc6O)nnc5c4)C3)C2)nn1 [Compound 201, (2S,4R)-N-((S)-1-(4-fluorophenyl)ethyl)-4-hydroxy-1-((S)-2-(4-(6-(3-(2-hydroxyphenyl)cinnolin-7-yl)-2,6-diazaspiro[3.3]heptan-2-yl)-1H-1,2,3-triazol-1-yl)-3-methylbutanoyl)pyrrolidine-2-carboxamide] | A (“A” indicates maximum degradation ≥75%)
12 | > 50 | < 10 | > 10 | CC(C)[C@@H](C(=O)N1C[C@H](O)C[C@H]1C(=O)N[C@@H](C)c1ccc(C#N)cc1)n1cc(N2CC3(CN(c4ccc5cc(-c6ccccc6O)nnc5c4)C3)C2)nn1 [Compound 202, (2S,4R)-N-((S)-1-(4-cyanophenyl)ethyl)-4-hydroxy-1-((S)-2-(4-(6-(3-(2-hydroxyphenyl)cinnolin-7-yl)-2,6-diazaspiro[3.3]heptan-2-yl)-1H-1,2,3-triazol-1-yl)-3-methylbutanoyl)pyrrolidine-2-carboxamide] | A (“A” indicates maximum degradation ≥75%)
13 | < 50 | > 10 | – | Cc1ncsc1-c1ccc([C@H](C)NC(=O)[C@@H]2C[C@@H](O)CN2C(=O)[C@H](C(C)C)n2cc(-c3ccc4nnc(-c5ccccc5O)cc4c3C)nn2)cc1 [Compound 203, (2S,4R)-4-hydroxy-1-((S)-2-(4-(3-(2-hydroxyphenyl)-5-methylcinnolin-6-yl)-1H-1,2,3-triazol-1-yl)-3-methylbutanoyl)-N-((S)-1-(4-(4-methylthiazol-5-yl)phenyl)ethyl)pyrrolidine-2-carboxamide] | A (“A” indicates maximum degradation ≥75%)
14 | > 75 | < 10 | < 10 | Cc1ncsc1-c1ccc([C@H](C)NC(=O)[C@@H]2C[C@@H](O)CN2C(=O)[C@H](C(C)C)n2cc(C3CC4(C3)CN(c3ccc5nnc(-c6ccccc6O)cc5c3)C4)nn2)cc1 [Compound 204, (2S,4R)-4-hydroxy-1-((S)-2-(4-(2-(3-(2-hydroxyphenyl)cinnolin-6-yl)-2-azaspiro[3.3]heptan-6-yl)-1H-1,2,3-triazol-1-yl)-3-methylbutanoyl)-N-((S)-1-(4-(4-methylthiazol-5-yl)phenyl)ethyl)pyrrolidine-2-carboxamide] | A (“A” indicates maximum degradation ≥75%)
15 | < 50 | < 10 | – | Cc1ncsc1-c1ccc([C@H](C)NC(=O)[C@@H]2C[C@@H](O)CN2C(=O)[C@@H](c2cc(N3CC4(CN(c5cc(C(F)F)c6cc(-c7ccccc7O)nnc6c5)C4)C3)no2)C(C)C)cc1 [Compound 205, (2S,4R)-1-((R)-2-(3-(6-(5-(difluoromethyl)-3-(2-hydroxyphenyl)cinnolin-7-yl)-2,6-diazaspiro[3.3]heptan-2-yl)isoxazol-5-yl)-3-methylbutanoyl)-4-hydroxy-N-((S)-1-(4-(4-methylthiazol-5-yl)phenyl)ethyl)pyrrolidine-2-carboxamide] | A (“A” indicates maximum degradation ≥75%)
